In PMC10005547, “Development of Highly Efficient Estrogen Receptor β-Targeted Near-Infrared Fluorescence Probes Triggered by Endogenous Hydrogen Peroxide for Diagnostic Imaging of Prostate Cancer” (Molecules, 2023):

How the values were obtained:
in vitro = assay: in vitro; set-up: CCK-8 cell viability assay, absorbance at 450 nm; conditions: human, mcf-10a cells; read-out: MCF-10A (IC50)
Experimental: Normal breast cells MCF-10A and prostate cancer cells DU-145 (purchased from ATCC, Rockville, MD, USA), breast cancer cells MCF-7 (purchased from the Type Culture Collection of the Chinese Academy of Sciences, Shanghai, China) were cultured in a phenol red DMEM [compound left out] medium supplemented with 10% fetal bovine serum. When the cell density reached 80% to 90%, the cells were digested, and the cell suspension was spread into 96-well cell culture plates with a phenol red-free DMEM medium containing 10% CS. After the cells were completely adherent, the original culture medium was discarded, and 100 μL of fresh compound solution prepared with the DMEM medium containing 10% CS were added to each well. The concentration gradient of the compound is: 1 × 10^−7.5 M, 1 × 10^−7 M, 1 × 10^−6.5 M, 1 × 10^−6 M, 1 × 10^−5.5 M, 1 × 10^−5 M, 1 × 10^−4.5 M, 1 × 10^−4 M. After 4 days of drug-treated culture, the culture plate was removed, the culture medium was aspirated, 100 μL CCK-8 working solution was added to each well and incubated for 1.5–2 h at 37 °C in a 5% CO2 incubator. The plate was read on the microplate reader, the wavelength at 450 nm was selected as the reference wavelength, the experimental results were analyzed, and the IC50 was calculated. […]

ERβ = biological target: T1, ERβ (Homo sapiens, UniProt Q92731); assay: fluorescence polarization competition against a fluorescent ligand; type: binding
T1 construct: gene ESR2
T1 sequence (Q92731 whole entry): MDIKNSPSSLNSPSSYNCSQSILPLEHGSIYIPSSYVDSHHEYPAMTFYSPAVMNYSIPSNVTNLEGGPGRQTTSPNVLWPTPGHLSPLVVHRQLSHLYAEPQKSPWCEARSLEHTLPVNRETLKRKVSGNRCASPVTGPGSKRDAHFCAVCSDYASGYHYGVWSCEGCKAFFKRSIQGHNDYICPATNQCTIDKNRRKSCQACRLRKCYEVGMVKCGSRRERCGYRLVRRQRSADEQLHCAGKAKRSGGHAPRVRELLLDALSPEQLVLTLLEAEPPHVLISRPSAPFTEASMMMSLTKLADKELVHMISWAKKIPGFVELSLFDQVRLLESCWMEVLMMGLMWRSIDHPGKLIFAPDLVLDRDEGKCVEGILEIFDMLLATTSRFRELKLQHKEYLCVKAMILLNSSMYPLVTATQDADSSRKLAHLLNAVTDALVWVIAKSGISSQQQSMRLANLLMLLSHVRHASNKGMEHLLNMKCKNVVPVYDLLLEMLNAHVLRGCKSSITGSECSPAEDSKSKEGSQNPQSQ

MCF-7 = assay: cells; set-up: CCK-8 cell viability assay, absorbance at 450 nm; conditions: Homo sapiens, MCF7, 96 h
Experimental: (§1) Normal breast cells MCF-10A and prostate cancer cells DU-145 (purchased from ATCC, Rockville, MD, USA), breast cancer cells MCF-7 (purchased from the Type Culture Collection of the Chinese Academy of Sciences, Shanghai, China) were cultured in a phenol red DMEM [compound left out] medium supplemented with 10% fetal bovine serum. When the cell density reached 80% to 90%, the cells were digested, and the cell suspension was spread into 96-well cell culture plates with a phenol red-free DMEM medium containing 10% CS. After the cells were completely adherent, the original culture medium was discarded, and 100 μL of fresh compound solution prepared with the DMEM medium containing 10% CS were added to each well. The concentration gradient of the compound is: 1 × 10^−7.5 M, 1 × 10^−7 M, 1 × 10^−6.5 M, 1 × 10^−6 M, 1 × 10^−5.5 M, 1 × 10^−5 M, 1 × 10^−4.5 M, 1 × 10^−4 M. After 4 days of drug-treated culture, the culture plate was removed, the culture medium was aspirated, 100 μL CCK-8 working solution was added to each well and incubated for 1.5–2 h at 37 °C in a 5% CO2 incubator. The plate was read on the microplate reader, the wavelength at 450 nm was selected as the reference wavelength, the experimental results were analyzed, and the IC50 was calculated. To investigate the toxicity of P1 and P2 on normal cells and their inhibitory activity on cancer cells before performing cellular imaging, we tested the effects of P1 and P2 on MCF-10A normal breast cells, MCF-7 breast cancer cells with high ERα expression, and DU-145 prostate cancer cells with high ERβ expression by using CCK-8 assays (Table S1). […] However, P1 was not toxic to any of these three cell lines.

DU-145 = assay: cells; set-up: CCK-8 cell viability assay, absorbance at 450 nm; conditions: Homo sapiens, DU-145, 96 h
Experimental: as §1

ERα = biological target: T2, ERα (Homo sapiens, UniProt P03372); assay: fluorescence polarization competition against a fluorescent ligand; type: binding
T2 construct: gene ESR1
T2 sequence (P03372 1-595): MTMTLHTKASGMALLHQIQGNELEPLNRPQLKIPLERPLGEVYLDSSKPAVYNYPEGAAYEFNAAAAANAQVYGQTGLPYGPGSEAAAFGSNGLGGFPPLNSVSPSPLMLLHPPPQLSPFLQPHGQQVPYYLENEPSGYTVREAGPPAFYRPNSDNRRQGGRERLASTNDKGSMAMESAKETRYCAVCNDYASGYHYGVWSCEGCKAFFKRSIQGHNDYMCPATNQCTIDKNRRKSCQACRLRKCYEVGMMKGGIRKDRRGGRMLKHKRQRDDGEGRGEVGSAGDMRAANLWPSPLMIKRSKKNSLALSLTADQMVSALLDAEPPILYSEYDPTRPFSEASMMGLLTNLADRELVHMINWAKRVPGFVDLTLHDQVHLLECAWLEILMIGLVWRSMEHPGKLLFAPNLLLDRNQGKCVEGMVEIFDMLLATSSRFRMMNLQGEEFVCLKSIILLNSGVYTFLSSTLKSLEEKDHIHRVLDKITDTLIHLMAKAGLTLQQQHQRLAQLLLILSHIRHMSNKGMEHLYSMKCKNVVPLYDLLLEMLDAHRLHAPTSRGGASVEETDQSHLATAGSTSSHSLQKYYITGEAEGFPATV

For `CC1(C)OB(c2ccc(/C=C/C3=CC(=C(C#N)C#N)c4cc(O)ccc4O3)cc2)OC1(C)C` [P1, (E)-2-(6-Hydroxy-2-(4-(4,4,5,5-tetramethyl-1,3,2-dioxaborolan-2-yl)styryl)-4H-chromen-4-ylidene)malononitrile], the CC50 at 96 h (in vitro) was over 100 µM, the Ki (ERβ) was 1.42 ± 0.02 µM and the IC50 (MCF-7) was over 100 µM. For the same compound, the IC50 (DU-145) was over 100 µM and the Ki (ERα) was 4.36 ± 0.01 µM.

Work on `C=CS(=O)(=O)Oc1ccc2c(c1)C(=C(C#N)C#N)C=C(/C=C/c1ccc(B3OC(C)(C)C(C)(C)O3)cc1)O2` [P2, (E)-4-(Dicyanomethylene)-2-(4-(4,4,5,5-tetramethyl-1,3,2-dioxaborolan-2-yl)styryl)-4H-chromen-6-yl ethenesulfonate] yielded a CC50 at 96 h (in vitro) of over 100 µM, a Ki (ERβ) of 1.21 ± 0.03 µM and an IC50 (MCF-7) of 16.3 ± 4.42 µM. The IC50 (DU-145) was over 100 µM and the Ki (ERα) was 8.73 ± 0.01 µM.
